Source: US4931391A, “Method for preservation of nitrile hydration activity” (Mitsubishi Rayon Kabushiki Kaisha, priority 1986, dated 1990)
Read-outs that look alike come from different tables or passages of the source.

Experiments:
[1] = target: T1, (Rhodococcus erythropolis, UniProt P13448+P13449); assay: Preservation of nitrile hydration activity of cell extract prepared as in Comparison Example 1, stabilizer added to extract; assay type: biochemical, Corynebacterium strain N-774(FERM P-4446)
T1 sequence (P13448 2-207 limits assumed): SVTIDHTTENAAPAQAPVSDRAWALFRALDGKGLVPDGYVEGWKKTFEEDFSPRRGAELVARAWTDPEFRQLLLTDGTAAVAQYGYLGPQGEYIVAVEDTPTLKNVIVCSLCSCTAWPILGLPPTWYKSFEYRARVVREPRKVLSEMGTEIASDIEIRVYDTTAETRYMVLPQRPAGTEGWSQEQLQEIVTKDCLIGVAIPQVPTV
T1 sequence (P13449 1-212): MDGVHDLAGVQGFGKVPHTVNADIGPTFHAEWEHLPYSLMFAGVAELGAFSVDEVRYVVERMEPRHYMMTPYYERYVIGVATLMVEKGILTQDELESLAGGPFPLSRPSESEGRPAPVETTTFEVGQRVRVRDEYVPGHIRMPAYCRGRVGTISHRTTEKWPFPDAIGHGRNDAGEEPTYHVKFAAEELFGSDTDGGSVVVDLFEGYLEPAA

immobilized nitrilase = immobilized nitrilase (Rhodococcus erythropolis, UniProt P13448+P13449); assay: Preservation of nitrile hydration activity of immobilized enzyme (polyacrylamide gel); assay type: biochemical, Corynebacterium strain N-774(FERM P-4446); conditions: 0° C., 20 minutes
Experimental: 40 ml of a cell extract prepared as in Example 1, 4.5 g of acrylamide, 0.5 g of N,N'-methylenebisacrylamide, and 40 ml of M/20 phosphate buffer (containing 10 g/l of ammonium isobutyrate, pH 6.0) were mixed to form a homogeneous suspension. To this suspension were added 5 ml of a 5% aqueous solution of dimethylaminopropionitrile and 10 ml of a 1.0% aqueous solution of potassium persulfate, and the mixture was maintained at 10° C. for 30 minutes to cause polymerization. A mass of cell-containing gel obtained was crushed into small particles, which were thoroughly washed with M/20 phosphate buffer containing 5 g/l of ammonium isobutyrate, pH 7.0, whereby approximately 90 g of an immobilized enzyme was obtained.
The washed, immobilized enzyme thus obtained was placed in the same buffer containing 5 g/l of isobutyric acid and left standing at 20° C. for 3 days.
The nitrile hydration activity levels of the gel samples were measured as follows before and after the respective immobilized enzymes were left standing.
1 g of immobilized gel was mixed with 5 g of acrylonitrile and 97 ml of M/20 phosphate buffer (pH 7.7), and the mixture was subjected to reaction at 0° C. for 20 minutes with stirring. The quantities of acrylamide in the respective reaction solutions were determined by gas chromatography.

[2] = 48 h; 10 mg organic acid in 2.5 ml buffer + 2.5 ml extract; pH 6.5; 20° C. for 2 days; read-out: % Residual Activity (Organic Acid Added)
[3] = 48 h; 10 mg amide in 2.5 ml buffer + 2.5 ml extract; pH 6.5; 20° C. for 2 days; read-out: % Residual Activity (Amide Added)
[4] = 48 h, pH 6.5, read-out: % Residual Activity (Organic Acid Added)
[5] = 48 h, pH 6.5; read-out: % Residual Activity (Amide Added)
[6] = 48 h, pH 6.5; read-out: % Residual Activity (Organic Acid Added)
[7] = 48 h, pH 6.5; read-out: % Residual Activity (Nitrile Added)
[8] = 48 h; 10 mg nitrile in 2.5 ml buffer + 2.5 ml extract (0.8×10^3 U/ml); pH 6.5; 20° C. for 2 days; read-out: % Residual Activity (Nitrile Added)
[9] = pH 6, read-out: % Residual Activity
[10] = stabilizer concentration 0.01 g/l; pH 6.0; extract 0.7×10^3 U/ml; 20° C. for 2 days; read-out: % Residual Activity
[11] = stabilizer concentration 5.0 g/l; pH 6.0; extract 0.7×10^3 U/ml; 20° C. for 2 days; read-out: % Residual Activity
[12] = stabilizer concentration 20 g/l; pH 6.0; […]; 20° C. for 2 days; read-out: % Residual Activity
[13] = stabilizer concentration 50 g/l; pH 6.0; extract 0.7×10^3 U/ml; 20° C. for 2 days; read-out: % Residual Activity
[14] = 48 h, pH 6, read-out: % Residual Activity
[15] = 48 h, pH 7, read-out: % Residual Activity
[16] = stabilizer concentration 1.0 g/l; pH 6.0; […]; 20° C. for 2 days; read-out: % Residual Activity

O=C(O)C(O)CO (racemic) [DL-Glyceric acid]
activity at 2000 µg/mL [1, 2]: 60%

CC(N)=O [Acetamide]
activity at 2000 µg/mL [1, 3]: 57%

CC(=O)O [Acetic acid]
activity at 2000 µg/mL [1, 4]: 55%

CC#N [Acetonitrile]
activity at 2000 µg/mL ([1]; 48 h, pH 6.5, read-out: % Residual Activity (Nitrile Added)): 61%

C=CC(N)=O [Acrylamide]
activity at 2000 µg/mL [1, 5]: 63%

C=CC(=O)O [Acrylic acid]
activity at 2000 µg/mL [1, 6]: 53%

C=CC#N [Acrylonitrile]
activity at 2000 µg/mL [1, 7]: 56%

N#CCCCCC#N [Adiponitrile]
activity at 2000 µg/mL [1, 7]: 68%

NC(=O)c1ccccc1 [Benzamide]
activity at 2000 µg/mL [1, 3]: 47%

O=C(O)c1ccccc1 [Benzoic acid]
activity at 2000 µg/mL [1, 6]: 48%

N#Cc1ccccc1 [Benzonitrile]
activity at 2000 µg/mL [1, 8]: 44%

CCCC(=O)O [Butyric acid]
remaining activity at 100 µg/mL [1, 9]: 87%
remaining activity at 10 µg/mL [1, 10]: 63%
remaining activity at 1000 µg/mL ([1]; stabilizer concentration 1.0 g/l; pH 6.0; extract 0.7×10^3 U/ml; 20° C. for 2 days; read-out: % Residual Activity): 92%
remaining activity at 5000 µg/mL [1, 11]: 90%
remaining activity at 20000 µg/mL [1, 12]: 85%
remaining activity at 50000 µg/mL [1, 13]: 67%

CCCCCC(=O)O [Caproic acid]
activity at 2000 µg/mL [1, 6]: 78%

NC(=O)CCl [Chloroacetamide]
activity at 2000 µg/mL ([1]; 48 h, pH 6.5, read-out: % Residual Activity (Amide Added)): 60%

N#CCCl [Chloroacetonitrile]
activity at 2000 µg/mL [1, 7]: 58%

N#CCC(N)=O [Cyanoacetamide]
activity at 2000 µg/mL [1, 7]: 53%

N#CCC(=O)O [Cyanoacetic acid]
activity at 2000 µg/mL [1, 8]: 54%

O=CO [Formic acid]
activity at 2000 µg/mL [1, 4]: 48%

NCC(N)=O [Glycine amide]
activity at 2000 µg/mL [1, 3]: 49%

N#CCN [Glycine nitrile]
activity at 2000 µg/mL [1, 7]: 58%

O=C(O)CO [Glycolic acid]
activity at 2000 µg/mL [1, 2]: 52%

O=CC(=O)O [Glyoxylic acid]
activity at 2000 µg/mL [1, 2]: 72%

CC(C)C(N)=O [Isobutyramide]
activity at 25 mg [1, 14]: 80%
activity at 25 mg ([1]; 48 h, pH 7; read-out: % Residual Activity): 74%
activity at 2000 µg/mL [1, 3]: 85%
activity at 25 mg ([1]; 48 h; pH 5.0; 25 mg stabilizer in 2.5 ml buffer + 2.5 ml extract (1×10^3 U/ml); 20° C. for 2 days; read-out: % Residual Activity): 4%
activity at 25 mg ([1]; 48 h; pH 8.0; 25 mg stabilizer in 2.5 ml buffer + 2.5 ml extract (1×10^3 U/ml); 20° C. for 2 days; read-out: % Residual Activity): 48%

CC(C)C(=O)O [Isobutyric acid]
Quant. of AA produced (%) after enzyme was left standing (immobilized nitrilase; after standing at 20° C. for 3 days in buffer containing 5 g/l of isobutyric acid, 1 g gel): 0.60%
Quant. of AA produced (%) before enzyme was left standing (immobilized nitrilase; immobilized gel, 1 g with 5 g acrylonitrile, immobilized and washed with stabilizer): 0.71%
activity at 25 mg ([1]; 48 h, pH 5, read-out: % Residual Activity): 2%
activity at 25 mg ([1]; 48 h, pH 5.5, read-out: % Residual Activity): 82%
activity at 25 mg [1, 14]: 83%
activity at 2000 µg/mL [1, 4]: 83%
activity at 25 mg [1, 15]: 77%
activity at 25 mg ([1]; 48 h, pH 8, read-out: % Residual Activity): 42%

CC(C)C#N [Isobutyronitrile]
activity at 25 mg ([1]; 48 h, pH 5; read-out: % Residual Activity): 3%
activity at 25 mg [1, 14]: 82%
activity at 2000 µg/mL [1, 7]: 88%
activity at 25 mg [1, 15]: 77%
activity at 25 mg ([1]; 48 h, pH 8; read-out: % Residual Activity): 45%

CC(O)C(N)=O (stereo not shown) [Lactamide]
activity at 2000 µg/mL [1, 3]: 50%

CC(O)C#N (stereo not shown) [Lactonitrile]
activity at 2000 µg/mL [1, 7]: 49%

O=C(O)CC(O)C(=O)O (stereo not shown) [Malic acid]
activity at 2000 µg/mL [1, 2]: 43%

NC(=O)CC(N)=O [Malondiamide]
activity at 2000 µg/mL [1, 3]: 48%

N#CCC#N [Malononitrile]
activity at 2000 µg/mL ([1]; 48 h; pH 6.5; 20° C. for 2 days; read-out: % Residual Activity (Nitrile Added)): 55%

C=C(C)C(N)=O [Methacrylamide]
activity at 2000 µg/mL [1, 3]: 70%

C=C(C)C(=O)O [Methacrylic acid]
activity at 2000 µg/mL [1, 6]: 59%

C=C(C)C#N [Methacrylonitrile]
activity at 2000 µg/mL [1, 7]: 62%

O=C(O)CCl [Monochloroacetic acid]
activity at 2000 µg/mL [1, 6]: 39%

NC(=O)c1cccnc1 [Nicotinamide]
activity at 2000 µg/mL [1, 5]: 39%

N#Cc1cccnc1 [Nicotinonitrile]
activity at 2000 µg/mL [1, 7]: 43%

O=C(O)CC(=O)C(=O)O [Oxalacetic acid]
activity at 2000 µg/mL [1, 2]: 68%

CCC(N)=O [Propionamide]
activity at 2000 µg/mL [1, 3]: 83%

CCC(=O)O [Propionic acid]
activity at 2000 µg/mL [1, 4]: 78%

CCC#N [Propionitrile]
activity at 2000 µg/mL [1, 7]: 83%

NC(=O)CCC(N)=O [Succindiamide]
activity at 2000 µg/mL [1, 3]: 63%

O=C(O)CCC(=O)O [Succinic acid]
activity at 2000 µg/mL [1, 4]: 59%

N#CCCC#N [Succinonitrile]
activity at 2000 µg/mL [1, 7]: 70%

CCCCC(=O)O [Valeric acid]
activity at 2000 µg/mL [1, 2]: 81%

CCCC(N)=O [n-Butyramide]
activity at 2000 µg/mL [1, 3]: 90%
remaining activity at 20000 µg/mL [1, 9]: 78%
remaining activity at 10 µg/mL [1, 10]: 60%
remaining activity at 100 µg/mL ([1]; stabilizer concentration 0.1 g/l; pH 6.0; […]; 20° C. for 2 days; read-out: % Residual Activity): 85%
remaining activity at 1000 µg/mL [1, 16]: 85%
remaining activity at 5000 µg/mL [1, 11]: 89%
remaining activity at 50000 µg/mL [1, 13]: 63%

CCCC#N [n-Butyronitrile]
activity at 2000 µg/mL [1, 7]: 93%
remaining activity at 100 µg/mL [1, 9]: 82%
remaining activity at 10 µg/mL ([1]; stabilizer concentration 0.01 g/l; pH 6.0; […]; 20° C. for 2 days; read-out: % Residual Activity): 60%
remaining activity at 1000 µg/mL [1, 16]: 88%
remaining activity at 5000 µg/mL ([1]; stabilizer concentration 5.0 g/l; pH 6.0; […]; 20° C. for 2 days; read-out: % Residual Activity): 86%
remaining activity at 20000 µg/mL [1, 12]: 70%

CCCCCC(N)=O [n-Capronamide]
activity at 2000 µg/mL [1, 3]: 75%

CCCCCC#N [n-Capronitrile]
activity at 2000 µg/mL [1, 7]: 71%

CCCCC(N)=O [n-Valeramide]
activity at 2000 µg/mL [1, 3]: 78%

CCCCC#N [n-Valeronitrile]
activity at 2000 µg/mL [1, 7]: 82%

NCCC(N)=O [β-Aminopropionamide]
activity at 2000 µg/mL [1, 3]: 52%

NCCC(=O)O [β-Aminopropionic acid]
activity at 2000 µg/mL [1, 4]: 45%

N#CCCN [β-Aminopropionitrile]
activity at 2000 µg/mL [1, 7]: 55%

NC(=O)CCCl [β-Chloropropionamide]
activity at 2000 µg/mL [1, 3]: 68%

N#CCCCl [β-Chloropropionitrile]
activity at 2000 µg/mL [1, 7]: 63%

NC(=O)CCO [β-Hydroxypropionamide]
activity at 2000 µg/mL [1, 3]: 61%

N#CCCO [β-Hydroxypropionitrile]
activity at 2000 µg/mL [1, 7]: 78%
